Experimental data reported in US8053585B2, “Protecting group for carboxylic acids that can be photolyzed by visible light” (Cornell Research Foundation, Inc., priority 2006, dated 2011).

Tested on: GluR6 glutamate receptor
Test: Whole-cell current recording with cell-flow method, HEK 293 cells expressing GluR6
Type: cell-based
Settings: 1 mM DECM, −60 mV, pH 7.4, 22° C.
Text: In whole-cell current recording experiments with DECM-caged glutamate, HEK 293 cells stably transfected with cDNA encoding the GluR6 were used. In whole-cell current recording experiments with DECM-caged glycine, HEK 293 cells were transiently transfected with the cDNA of the α1-subunit of the human glycine receptor by using the Polyfect™ transfection reagent (Qiagen GmbH, D-40724, Hilden, Germany). The cDNA of the α1-subunit was kindly provided by Professor H. Betz (Max-Plank-Institute for brain Research, Frankfurt, Germany). The cells were co-transfected with cDNA encoding the green fluorescent protein (pGreen Lantern plasmid, Life Technologies, Gaitherberg, Md.) to detect transfected cells (Chalfie et al., “Green Fluorescent Protein as a Marker for Gene Expression,” Science 263:802-805 (1994), which is hereby incorporated by reference in its entirety).
The cells were used for electrophysiological experiments between 24 and 72 h after each passage. Whole-cell currents evoked by glutamate or glycine (100 μM) were recorded using the whole-cell configuration (Hamill et al., “Improved Patch-Clamp Techniques for High-Resolution Current Recording From Cells and Cell-Free Membrane Patches,” Pfluegers Arch 391:85-100 (1981), which is hereby incorporated by reference in its entirety) at room temperature, −60 mV, and pH 7.4. The experiments using DECM-caged glutamate were carried out in the absence or presence of 2 mM DECM-caged glutamate (FIG. 5A) or 1 mM 7-N,N-diethylamino-4-hydroxymethylcoumarin (2) (FIG. 5B). Alternatively, the experiments using DECM-caged glycine were carried out in the absence or presence of 1 mM DECM-caged-glycine (FIG. 10). The solution in the recording pipet contained 120 mM CsCl, 10 mM EGTA, and 10 mM HEPES, adjusted to pH 7.4. The HEK cell bath solution contained 150 mM NaCl, 1 mM CaCl2, 10 mM HEPES, pH 7.4. The resistance of the recording electrode filled with buffer solution was typically 3-5 MΩ and the series resistance was 5-6 MΩ. The cells were held at a constant transmembrane voltage of −60 mV and room temperature (22° C.). […]

CCN(CC)c1ccc2c(CO)cc(=O)oc2c1 [DECM, 7-N,N-Diethylamino-4-hydroxymethylcoumarin]
whole-cell current evoked by 100 μM glutamate, presence vs absence of compound: do not inhibit
